Results as given in patent US7495104B2, “Quinoline or quinazoline derivatives inhibiting auto-phosphorylation of fibroblast growth factor receptors” (Kirin Beer Kabushiki Kaisha, priority 2001, dated 2009).
Where a name gives a salt, the structure may show the parent alone.

Biological target: Bek (Homo sapiens, UniProt P21802)
Assay: Inhibitory activity against Bek-autophosphorylation using ELISA method in OCUM-2MD3 cells
Format: cell-based
Settings: 1 hr with compound, read-out: IC50 (concentration necessary for inhibiting 50% of Bek-phosphorylation)
Protocol: Human scirrhus stomach cancer cells OCUM-2MD3 (kindly provided by Dr. Kosei Hirakawa, Osaka City University) were cultured in an RPMI medium containing 10% fetal calf serum (purchased from ICN) within a 5% carbon dioxide incubator until 50 to 90% confluent. The harvested cells were seeded onto 96-well flat-bottom plate in RPMI containing 0.1% fetal calf serum at 3.5×10^4 cells per well, followed by cultivation at 37° C. overnight. A solution of the test compound in dimethyl sulfoxide was added to each well, and the cultivation was continued at 37° C. for additional one hr. The medium was removed, and 50 μl of lysis buffer (20 mM HEPES (pH 7.4), 150 mM NaCl, 0.2% Triton X-100, 10% glycerol, 5 mM sodium orthovanadylate, 5 mM disodium ethylenediaminetetraacetate, and 2 mM Na4P2O7) was then added thereto. The mixture was shaken at 4° C. for 2 hr to prepare cell extracts.
Separately, phosphate buffered saline (50 μl, pH 7.4) containing 5 μg/ml of anti-phospho-tyrosine antibody (PY20; purchased from Transduction Laboratories) was added to a microplate for ELISA (Maxisorp; purchased from NUNC), followed by standing at 4° C. overnight to form a solid phase on the wells. After washing of the plate, 300 μl of a blocking solution was added, followed by standing at room temperature for 2 hr to perform blocking. After washing, the whole quantity of the cell extracts was transferred to the wells, and the plate was then allowed to stand at 4° C. overnight. After washing, an anti-Bek antibody (Bek (C-17), purchased from Santa Cruz Biotechnology) or Anti-Human K-sam Rabbit IgG Affinity Purity (purchased from IBL Co., Ltd.) was allowed to react at room temperature for one hr, and, after washing, a peroxidase-labeled anti-rabbit Ig antibody (purchased from Amersham) was allowed to react at room temperature for one hr. After washing, a chromophoric substrate for peroxidase (purchased from Sumitomo Bakelite Co., Ltd.) was added thereto to initiate a reaction. After a suitable level of color development, a reaction termination solution was added to stop the reaction, and the absorbance at 450 nm was measured with a microplate reader. The Bek-phosphorylation activity for each well was determined by presuming the absorbance without the addition of the medicament to be 100% Bek-phosphorylation activity and the absorbance with the addition of a large excess of a positive control (N-{4-[(6,7-dimethoxy-4-quinolyl)oxy]phenyl}-N′-(3,3-dimethylbutyl)urea, 1000 nM) to be 0% Bek-phosphorylation activity. The concentration of the test compound was varied on several levels, the Bek-phosphorylation inhibitory activity was determined for each case, and the concentration of the test compound necessary for inhibiting 50% of Bek-phosphorylation (IC50) was calculated.

Chain of Bek (P21802 431-767 limits assumed): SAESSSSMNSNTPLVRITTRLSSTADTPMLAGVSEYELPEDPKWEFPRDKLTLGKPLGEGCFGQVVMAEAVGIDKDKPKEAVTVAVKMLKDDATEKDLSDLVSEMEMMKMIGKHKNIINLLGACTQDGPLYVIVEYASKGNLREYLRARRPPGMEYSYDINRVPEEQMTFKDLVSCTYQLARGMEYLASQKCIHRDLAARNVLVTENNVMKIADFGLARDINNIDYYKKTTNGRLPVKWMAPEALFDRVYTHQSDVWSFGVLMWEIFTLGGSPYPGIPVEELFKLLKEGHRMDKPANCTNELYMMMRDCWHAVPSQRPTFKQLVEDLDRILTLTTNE

Compound | IC50
COc1cc2c(Oc3ccc(Nc4ccc(C(C)(C)C)cc4)cc3)ccnc2cc1OCC(O)CN1CCCN(C)CC1 (stereo not shown) [Compound 65, 1-{4-[4-(4-Tert-butylphenylamino)phenoxy]-6-methoxyquinolin-7-yloxy}-3-(4-methyl-[1,4]diazepin-1-yl)propan-2-ol] | 0.184 µM
COc1cc2c(Oc3ccc(Nc4ccc(C(C)(C)C)cc4)cc3)ccnc2cc1OCCCN1C[C@@H](C)O[C@@H](C)C1 [Compound 69, (4-Tert-butylphenyl)-(4-{7-[3-(2,6-dimethylmorpholin-4-yl)propoxy]-6-methoxyquinolin-4-yloxy}phenyl)amine] | 0.248 µM
COc1cc2c(Oc3ccc(Nc4ccc(C(C)(C)C)cc4)cc3)ccnc2cc1OC[C@H](O)CN1CCOCC1 [Compound 70, (R)-1-{4-[4-(4-Tert-butylphenylamino)phenoxy]-6-methoxyquinolin-7-yloxy}-3-morpholin-4-ylpropan-2-ol] | 0.0685 µM
COc1cc2c(Oc3ccc(Nc4ccc(C(C)(C)C)cc4)cc3)ccnc2cc1OC[C@@H](O)CN1CCOCC1 [Compound 71, (s)-1-{4-[4-(4-Tert-butylphenylamino)phenoxy]-6-methoxyquinolin-7-yloxy}-3-morpholin-4-ylpropan-2-ol] | 0.0611 µM
COc1cc2c(Oc3ccc(Nc4ccc(C(C)(C)C)cc4)cc3)ncnc2cc1OCCN1CCOCC1 [Compound 78, (4-Tert-butylphenyl)-{4-[6-methoxy-7-(2-morpholin-4-ylethoxy)quinazolin-4-yloxy]phenyl}amine] | 0.274 µM
COc1cc2c(Oc3ccc(Nc4ccc(C(C)(C)C)cc4)c(F)c3)ccnc2cc1OCCN1CCOCC1 [Compound 79, (4-Tert-butylphenyl)-{2-fluoro-4-[6-methoxy-7-(2-morpholin-4-ylethoxy)quinolin-4-yloxy]phenyl}amine] | 0.159 µM
COc1cc2c(Oc3ccc(Nc4ccc(C(C)(C)C)cc4)cc3)ccnc2cc1OCCC(C)N1CCOCC1 (stereo not shown) [Compound 80, (4-Tert-butylphenyl)-{4-[6-methoxy-7-(3-morpholin-4-ylbutoxy)-quinolin-4-yloxy]phenyl}amine] | 0.151 µM
COc1cc2c(Oc3ccc(NC(=O)NCCC(C)(C)C)cc3)ccnc2cc1OCCCN1CCC(O)CC1 [Compound 96, 1-(3,3-Dimethyl-butyl)-3-(4-{7-[3-(4-hydroxy-piperidin-1-yl)-propoxy]-6-methoxy-quinolin-4-yloxy}-phenyl)-urea] | < 0.01 µM
COc1cc2nccc(Oc3ccc(NC(=O)NCCC(C)(C)C)cc3F)c2cc1OC [Compound 102, 1-[4-(6,7-Dimethoxy-quinolin-4-yloxy)-3-fluorophenyl]-3-(3,3-dimethyl-butyl)-urea] | 0.0278 µM
COc1cc2nccc(Oc3ccc(NC(=O)NCCC(C)(C)C)c(Cl)c3)c2cc1OC [Compound 103, 1-[2-Chloro-4-(6,7-dimethoxyquinolin-4-yloxy)-phenyl]-3-(3,3-dimethyl-butyl)-urea] | 0.0298 µM
COc1cc2nccc(Oc3ccc(NC(=O)NC4CC(C)CC(C)(C)C4)c(F)c3)c2cc1OC (stereo not shown) [Compound 106, 1-[4-(6,7-Dimethoxy-quinolin-4-yloxy)-2-fluoro-phenyl]-3-(3,3,5-trimethyl-cyclohexyl)-urea] | 0.0197 µM
COc1cc2nccc(Oc3ccc(NC(=O)NC4CC(C)CC(C)(C)C4)c(Cl)c3)c2cc1OC (stereo not shown) [Compound 107, 1-[2-Chloro-4-(6,7-dimethoxy-quinolin-4-yloxy)-phenyl]-3-(3,3,5-trimethyl-cyclohexyl)-urea] | < 0.01 µM
COc1cc2nccc(Oc3ccc(NC(=O)NC4CCCC(C)(C)C4)c(F)c3)c2cc1OC (stereo not shown) [Compound 109, 1-[4-(6,7-Dimethoxy-quinolin-4-yloxy)-2-fluoro-phenyl]-3-(3,3-dimethyl-cyclohexyl)-urea] | < 0.01 µM
COc1cc2nccc(Oc3ccc(NC(=O)NC4CCCC(C)(C)C4)c(Cl)c3)c2cc1OC (stereo not shown) [Compound 110, 1-[2-Chloro-4-(6,7-dimethoxy-quinolin-4-yloxy)-phenyl]-3-(3,3-dimethyl-cyclohexyl)-urea] | < 0.01 µM
COc1cc2nccc(Oc3ccc(NC(=O)NCCC(C)(C)C)c(F)c3)c2cc1OC [Compound 111, 1-[4-(6,7-Dimethoxy-quinolin-4-yloxy)-2-fluoro-phenyl]-3-(3,3-dimethyl-butyl)-urea] | < 0.01 µM
COc1cc2c(Oc3ccc(NC(=O)NCCC(C)(C)C)cc3)ccnc2cc1OCCN1CCOCC1 [Compound 112, 1-(3,3-Dimethyl-butyl)-3-{4-[6-methoxy-7-(2-morpholin-4-yl-ethoxy)-quinolin-4-yloxy]-phenyl}-urea hydrochloride] | 0.0521 µM
COc1cc2c(Oc3ccc(NC(=O)NCCC(C)(C)C)cc3)ccnc2cc1OCCN1CCN(C)CC1 [Compound 113, 1-(3,3-Dimethyl-butyl)-3-(4-{6-methoxy-7-[2-(4-methyl-piperazin-1-yl)-ethoxy]-quinolin-4-yloxy}-phenyl)-urea hydrochloride] | 0.01 µM

Further lines, results first:

IC50 | Compound
0.199 µM | CCNCC(O)COc1cc2nccc(Oc3ccc(Nc4ccc(C(C)(C)C)cc4)cc3)c2cc1OC (stereo not shown) [Compound 66, 1-{4-[4-(4-Tert-butylphenylamino)phenoxy]-6-methoxyquinolin-7-yloxy}-3-ethylaminopropan-2-ol]
0.189 µM | COc1cc2c(Oc3ccc(Nc4ccc(C(C)(C)C)cc4)cc3)ccnc2cc1OCC(O)CN(C)C (stereo not shown) [Compound 67, 1-{4-[4-(4-Tert-butylphenylamino)phenoxy]-6-methoxyquinolin-7-yloxy}-3-dimethylaminopropan-2-ol]
0.248 µM | COc1cc2c(Oc3ccc(Nc4ccc(C(C)(C)C)cc4)cc3)ccnc2cc1OCCN1C[C@@H](C)O[C@@H](C)C1 [Compound 68, (4-Tert-butylphenyl)-(4-{7-[2-(2,6-dimethylmorpholin-4-yl)ethoxy]-6-methoxyquinolin-4-yloxy}phenyl)amine]
0.836 µM | COc1cc2ncnc(Oc3ccc(Nc4ccc(C(C)C)cc4)cc3)c2cc1OC [Compound 72, [4-(6,7-Dimethoxyquinazolin-4-yloxy)phenyl]-(4-isopropyl-phenyl)amine]
3.51 µM | COc1cc2nccc(Oc3ccc(Nc4ccsc4)cc3)c2cc1OC [Compound 73, [4-(6,7-Dimethoxyquinolin-4-yloxy)phenyl]thiophen-3-ylamine]
0.521 µM | COc1cc2ncnc(Oc3ccc(Nc4ccc(C(C)(C)C)cc4)cc3)c2cc1OC [Compound 74, (4-Tert-butylphenyl)-[4-(6,7-dimethoxyquinazolin-4-yloxy)-phenyl]amine]
5.19 µM | COc1cc2nccc(Oc3ccc(Nc4nc(C)c(C)s4)cc3)c2cc1OC [Compound 75, [4-(6,7-Dimethoxyquinolin-4-yloxy)phenyl]-(4,5-dimethylthiazol-2-yl)amine]
7.56 µM | COc1cc2nccc(Oc3ccc(Nc4nn(-c5ccccc5)c(=O)o4)cc3)c2cc1OC [Compound 76, 5-[4-(6,7-Dimethoxyquinolin-4-yloxy)phenylamino]-3-phenyl-3H-[1,3,4]oxazol-2-one]
3.45 µM | COc1cc2nccc(Oc3ccc(NC4CCC(C(C)(C)C)CC4)cc3)c2cc1OC (stereo not shown) [Compound 77, (4-Tert-butylcyclohexyl)-[4-(6,7-dimethoxyquinolin-4-yloxy)phenyl]amine]
0.0101 µM | COc1cc2c(Oc3ccc(Nc4ccc(C(C)(C)C)cc4)cc3)ccnc2cc1OCCN1CCC(CO)CC1 [Compound 81, [1-(2-{4-[4-(4-Tert-butylphenylamino)phenoxy]-6-methoxy-quinolin-7-yloxy}ethyl)piperidin-4-yl]methanol]
0.0701 µM | COc1cc2c(Oc3ccc(Nc4ccc(C(C)(C)C)cc4)cc3)ccnc2cc1OCCN1CCC(O)CC1 [Compound 82, 1-(2-{4-[4-(4-Tert-butylphenylamino)phenoxy]-6-methoxy-quinolin-7-yloxy}ethyl)piperidin-4-ol]
< 0.01 µM | COc1cc2nccc(Oc3ccc(NC(=O)NCCC(C)(C)C)cc3)c2cc1OC [Compound 101, 1-[4-(6,7-Dimethoxy-quinolin-4-yloxy)-phenyl]-3-(3,3-dimethyl-butyl)-urea]
0.0306 µM | COc1cc2nccc(Oc3ccc(NC(=O)NC4CC(C)CC(C)(C)C4)cc3)c2cc1OC (stereo not shown) [Compound 105, 1-[4-(6,7-Dimethoxy-quinolin-4-yloxy)-phenyl]-3-(3,3,5-trimethyl-cyclohexyl)-urea]
< 0.01 µM | COc1cc2nccc(Oc3ccc(NC(=O)NC4CCCC(C)(C)C4)cc3)c2cc1OC (stereo not shown) [Compound 108, 1-[4-(6,7-Dimethoxy-quinolin-4-yloxy)-phenyl]-3-(3,3-dimethyl-cyclohexyl)-urea]
